{"source": "patent US10493102B2", "about": "“Methods of inhibiting the virulence of a pathogen with an oxidized tannin to treat a gastrointestinal spasm” (priority 2012, dated 2019)", "key": {"[1]": {"system": "E. coli", "experiment": "Stability of hydrogen peroxide (bound vs free) in aqueous solution challenged with E. coli", "assay_type": "physicochemical", "from_the_text": "This method tests the stability of the hydrogen peroxide in the combination. The testing methods used follow the standard procedures set-forth by the Clinical and Laboratory Standards Institute (CLSI) and US Pharmacopeia. • i. E. coli was chosen as the bacteria to challenge the stability of the bound compositions and the free hydrogen peroxide. • ii. The hydrogen peroxide concentration was matched to the selected bacteria in order to form a useful curve representing hydrogen peroxide degradation over time for the samples. As such, the hydrogen peroxide was varied from 62.5 ppm to 500 ppm on a fixed E. coli concentration of 10^6 CFU/ml, and a concentration of 125 ppm was chosen as the initial hydrogen peroxide level used to challenge the E. coli over time. • iii. A ratio of 1:1 of the hydrogen peroxide to each of the model compounds and plant extracts was used to form each bound composition, such that 125 ppm of each plant extract was combined with the 125 ppm of the hydrogen peroxide, • iv. The free hydrogen peroxide was added at a concentration of 125 ppm as a control to show the relative stability of the hydrogen peroxide alone in the aqueous solution as compared to the bound compositions.\nFIG. 2A compares stabilities of free hydrogen peroxide to hydrogen peroxide bound to each of: gallic acid (a model polyphenol building block), tannic acid (a model polyphenol), pomegranate husk extract, green tea extract, and Blessed thistle extract. […] In both FIGS. 2A and 2B, there are curves that cannot be identified well individually, as they are identical and overlapping. […]"}, "[2]": {"experiment": "Amount of hydrogen peroxide that remains bound to the polyphenol in dry form", "assay_type": "physicochemical", "details": "dry form redissolved in water; WATERWORKS peroxide test strip", "from_the_text": "Art-recognized procedures, such as those set-forth at least in U.S. Pat. Nos. 3,860,694; 3,864,454; 4,171,280; and 4,966,762, were used as a guide for this study.\nAs discussed, one of skill will appreciate that hydrogen peroxide in a free form, for example, would otherwise quickly degrade. The polyphenols were provided from model compounds or plant extracts. A dry form of the compositions was made between (i) gallic acid (a model polyphenol building block from Sigma-Aldrich) and hydrogen peroxide; (ii) tannic acid (a model polyphenol component from Sigma-Aldrich) and hydrogen peroxide; (iii) pomegranate husk extract and hydrogen peroxide; and, (iv) green tea extract and hydrogen peroxide; using the procedures taught herein, including: • i. adding a solution of 35% hydrogen peroxide slowly into each of the gallic acid powder, tannic powder, pomegranate husk extract powder; or green tea extract powder. […]"}, "[3]": {"system": "IBS patients, abdominal pain", "details": "other studies; cited from earlier work"}}, "data": [{"compound": "OO", "note": "[H2O2, hydrogen peroxide]", "values": [{"measurement": "hydrogen peroxide level, Hours 0", "setting": "[1]; 0 h (initial level), 1:1 extract:H2O2, 125 ppm each, E. coli 10^6 CFU/ml", "result": 125, "unit": "ppm"}, {"measurement": "hydrogen peroxide level, Hours 4", "setting": "[1]; 4 h, 1:1 extract:H2O2, E. coli 10^6 CFU/ml", "result": 15, "unit": "ppm"}, {"measurement": "hydrogen peroxide level, Hours 8", "setting": "[1]; 8 h, 1:1 extract:H2O2, E. coli 10^6 CFU/ml", "result": 0, "unit": "ppm"}, {"measurement": "hydrogen peroxide level, Hours 12", "setting": "[1]; 12 h, 1:1 extract:H2O2, E. coli 10^6 CFU/ml", "result": 0, "unit": "ppm"}, {"measurement": "hydrogen peroxide level, Hours 16", "setting": "[1]; 16 h, 1:1 extract:H2O2, E. coli 10^6 CFU/ml", "result": 0, "unit": "ppm"}, {"measurement": "hydrogen peroxide level, Hours 20", "setting": "[1]; 20 h, 1:1 extract:H2O2, E. coli 10^6 CFU/ml", "result": 0, "unit": "ppm"}, {"measurement": "hydrogen peroxide level, Hours 24", "setting": "[1]; 24 h, 1:1 extract:H2O2, E. coli 10^6 CFU/ml", "result": 0, "unit": "ppm"}, {"measurement": "hydrogen peroxide level after degradation", "setting": "[1]; within about the first 8 hours", "result": "~0.0", "unit": "ppm"}]}, {"compound": "O=C(O)c1cc(O)c(O)c(O)c1", "note": "[gallic acid]", "values": [{"measurement": "hydrogen peroxide bound by total dry wt", "setting": "[2]", "result": "about 3.0%"}]}, {"compound": "CN(C)C(=O)C(CCN1CCC(O)(c2ccc(Cl)cc2)CC1)(c1ccccc1)c1ccccc1", "note": "[loperamide]", "values": [{"measurement": "effect on abdominal pain symptoms compared with placebo", "setting": "[3]", "result": "no different from placebo"}]}, {"compound": "O=C(OC[C@H]1O[C@@H](OC(=O)c2cc(O)c(O)c(OC(=O)c3cc(O)c(O)c(O)c3)c2)[C@H](OC(=O)c2cc(O)c(O)c(OC(=O)c3cc(O)c(O)c(O)c3)c2)[C@@H](OC(=O)c2cc(O)c(O)c(OC(=O)c3cc(O)c(O)c(O)c3)c2)[C@@H]1OC(=O)c1cc(O)c(O)c(OC(=O)c2cc(O)c(O)c(O)c2)c1)c1cc(O)c(O)c(OC(=O)c2cc(O)c(O)c(O)c2)c1", "note": "[tannic acid]", "values": [{"measurement": "hydrogen peroxide bound by total dry wt", "setting": "[2]", "result": "about 2.5%"}]}]}
